Data set [1] has as its target T1, Human immunodeficiency virus type 1 reverse transcriptase (Human immunodeficiency virus 1, UniProt Q72547). The data set is described as follows: Compound was evaluated for its ability to inhibit HIV-1 Reverse Transcriptase in an in vitro enzyme assay.
Data set [2] addresses Human immunodeficiency virus type 1 reverse transcriptase (Human immunodeficiency virus 1) (UniProt Q72547).
Description: Compound was evaluated for its ability to inhibit the wild type RF strain of HIV-1
Data set [3] relates to Human immunodeficiency virus type 1 reverse transcriptase (Human immunodeficiency virus 1), Q72547 [K103N].
Description: Compound was evaluated for its ability to inhibit a virus containing the clinically relevant K103N mutation
Data set [4] deals with T1, Human immunodeficiency virus type 1 reverse transcriptase. The data set is described as follows: Inhibition of HIV-1 Reverse Transcriptase in an in vitro enzyme assay.
Data set [5] is described as follows: Tmax was determined. The class given is ADME.
Data set [6] is described as follows: Cmax was determined. To be noted: in vivo. The format is ADME, organism-based.
The nature of data set [7]: Area under curve obtained at a dose of 10 mg/kg when administered orally to rhesus monkey. The class given is ADME, organism-based, Macaca mulatta. Also on record: dose 10 mg/kg, route oral. To be noted: in vivo, po.
Data set [8] in a line: Total plasma concentration at 24 hr at a dose of 10 mg/kg when administered orally to rhesus monkey. The format is ADME, organism-based, Macaca mulatta. Further details: dose 10 mg/kg, route oral. To be noted: po, read-out: C24h.

Each structure is given as a SMILES string.

In data set [1], `CC(C)C1OC(C#CC2CC2)(C(F)(F)F)c2cc(Cl)ccc2NC1=O` (centres undefined) showed an IC50 of 597 nM. For the same compound, in data set [2], it took 20.7 nM to reach the 90% level (IC90).
In turn, `CCCC1OC(C#CC2CC2)(C(F)(F)F)c2cc(Cl)ccc2NC1=O` (centres undefined) had an IC50 in data set [1] of 799 nM. This compound registered an IC90 in data set [2] of 17.2 nM.
`O=C1Nc2ccc(Cl)cc2[C@@](C#CC2CC2)(C(F)(F)F)N1` returned an IC50 in data set [1] of 32 nM. Further, the 90% effect concentration (IC90) in data set [3] amounted to 10 nM; in data set [2], 2 nM.
On to `O=C1COC(/C=C/C2CC2)(C(F)(F)F)c2cc(Cl)ccc2N1` (centres undefined), for which, in data set [1], the IC50 was 108 nM. Also, the IC90 in data set [3] is 362 nM; in data set [2], 3.9 nM.
In the case of `CC1OC(/C=C/C2CC2)(C(F)(F)F)c2c(ccc(F)c2F)NC1=O` (centres undefined), the IC50 in data set [1] is 173 nM. The IC90 in data set [3] is 81 nM; in data set [2] it was 5.2 nM.
For `CC[C@H]1O[C@](C#CC2CC2)(C(F)(F)F)c2cc(F)ccc2NC1=O`, the 50% inhibitory concentration (IC50) in data set [1] amounted to 1140 nM. Also, in data set [2], the IC90 was found to be 87.4 nM.
As to `C[C@H]1O[C@](C#CC2CC2)(C(F)(F)F)c2cc(F)ccc2NC1=O`, in data set [1], the IC50 was found to be 1940 nM. Further, it took 189 nM to reach the 90% level in data set [2] (IC90).
The like results for `O=C1COC(C#Cc2ccoc2)(C(F)(F)F)c2cc(Cl)ccc2N1` (centres undefined) were, in that order, 2510 nM and 47.5 nM.
In data set [1], `CCC1OC(/C=C/C2CC2)(C(F)(F)F)c2cc(Cl)ccc2NC1=O` (centres undefined) showed an IC50 of 185 nM. Further, the IC90 in data set [3] was 13 nM; in data set [2], 7.8 nM.
In turn, `CCC1OC(C#CC2CC2)(C(F)(F)F)c2cc(Cl)ccc2NC1=O` (centres undefined) came in with an IC50 in data set [4] of 391 nM. Moreover, the figures for the IC90 in data set [3] and in data set [2] were 139 nM and 8.4 nM, respectively.
On to `CC1OC(C#CC2CC2)(C(F)(F)F)c2c(ccc(F)c2F)NC1=O` (centres undefined), for which, in data set [1], the midpoint of inhibition, the IC50, lay at 193 nM. Besides, the results for the IC90 in data set [3] and in data set [2] were 75 nM and 5.8 nM, respectively.
Compound `CC1OC(/C=C/C2CC2)(C(F)(F)F)c2cc(Cl)ccc2NC1=O` (centres undefined) returned an IC50 in data set [1] of 46 nM. For the same compound, in data set [5], the time of peak concentration (Tmax) turned out to be 11 h. The highest level in data set [6] (Cmax) was 2360 nM. The AUC in data set [7] stood at 50.8 µM·h. For the same compound, the concentration at 24 h in data set [8] was 1400 nM. In addition, the concentration for an effect of 90% (IC90) turned out to be 35 nM in data set [3] and 2.5 nM in data set [2].
On to `O=C1Nc2ccc(Cl)cc2C(C#CC2CC2)(C(F)(F)F)OC1CC(F)(F)F` (centres undefined), for which, in data set [1], the IC50 is 235 nM. In addition, the 90% effect level in data set [2] (IC90) was put at 16.8 nM.
With `C[C@@H]1O[C@](C#CC2CC2)(C(F)(F)F)c2cc(Cl)ccc2NC1=O` (relative stereo), the 50% inhibitory concentration (IC50) in data set [1] is 82 nM. Moreover, the Tmax in data set [5] was 6 h. Besides, the peak level in data set [6] (Cmax) was 1670 nM. Moreover, the AUC in data set [7] is 30 µM·h. Moreover, the concentration at 24 h in data set [8] stood at 1140 nM. Further, the values for the IC90 in data set [3] and in data set [2] were 29 nM and 2.2 nM, respectively.
For the compound `O=C1COC(C#CC2CC2)(C(F)(F)F)c2cc(Cl)ccc2N1` (centres undefined), in data set [1], inhibition was half-maximal at 432 nM (IC50). Further, the 90% effect concentration (IC90) in data set [3] worked out at 1400 nM; in data set [2] it was 9.1 nM.
The matching figures for `CC(C)C#CC1(C(F)(F)F)OCC(=O)Nc2ccc(Cl)cc21` (centres undefined): 423 nM, 784 nM and 9.7 nM.
Consider `CC[C@@H]1O[C@](C#CC2CC2)(C(F)(F)F)c2cc(F)ccc2NC1=O`, for which it took 171 nM to reach half-maximal inhibition in data set [1] (IC50). The 90% effect concentration (IC90) in data set [3] worked out at 117 nM; in data set [2], 5.3 nM.
The like results for `C[C@H]1O[C@](C#CC2CC2)(C(F)(F)F)c2cc(Cl)ccc2NC1=O` were, in that order, 249 nM, 1130 nM and 7 nM.
The like results for `CC1OC(/C=C/C2CC2)(C(F)(F)F)c2cc(F)ccc2NC1=O` (centres undefined) were, in that order, 129 nM, 118 nM and 7.6 nM.
`C[C@@H]1O[C@](C#CC2CC2)(C(F)(F)F)c2cc(F)ccc2NC1=O` registered an IC50 in data set [1] of 95 nM. In addition, the IC90 in data set [3] is 333 nM; in data set [2], 5.2 nM.
The matching figures for `CCC1OC(/C=C/C2CC2)(C(F)(F)F)c2cc(F)ccc2NC1=O` (centres undefined): 151 nM, 70 nM and 2.5 nM.
Regarding `O=C1Nc2ccc(Cl)cc2[C@@](/C=C/C2CC2)(C(F)(F)F)N1`, 23 nM corresponded to half-maximal inhibition in data set [1] (IC50). The IC90 came out at 27 nM in data set [3] and 2.1 nM in data set [2].
The like results for `CCC#CC1(C(F)(F)F)OCC(=O)Nc2ccc(Cl)cc21` (centres undefined) were, in that order, 964 nM, 1760 nM and 9.1 nM.
The like results for `O=C1COC(C#Cc2ccccc2)(C(F)(F)F)c2cc(Cl)ccc2N1` (centres undefined) were, in that order, 3300 nM, 4100 nM and 24.3 nM.

What is called IC50 is the point on the concentration scale where inhibition reaches its midpoint. A word on the IC90: it is the concentration at which the effect reaches the 90% level. A word on the Tmax: it is the time at which the peak concentration occurs. One may read the Cmax as the maximum level reached in the sampled fluid or tissue. What is called AUC is the area under the concentration-time curve, a measure of exposure.

Source of the values: ChEMBL document CHEMBL1134799, “4,1-Benzoxazepinone analogues of efavirenz (Sustiva) as HIV-1 reverse transcriptase inhibitors” (Bioorg Med Chem Lett, 2001).
